Experiments:
[1] = target: T1, α1β3γ2 GABAA receptor, γ2R215H variant (Homo sapiens, UniProt P14867+P18507+P28472, R215H); assay: Automated patch clamp of GABA-elicited currents (SyncroPatch 384PE), γ2R215H; assay type: cell-based; conditions: mean
T1 construct: expressed in transfected cells; host or cells: HEK293T
T1 sequence (P14867 28-456): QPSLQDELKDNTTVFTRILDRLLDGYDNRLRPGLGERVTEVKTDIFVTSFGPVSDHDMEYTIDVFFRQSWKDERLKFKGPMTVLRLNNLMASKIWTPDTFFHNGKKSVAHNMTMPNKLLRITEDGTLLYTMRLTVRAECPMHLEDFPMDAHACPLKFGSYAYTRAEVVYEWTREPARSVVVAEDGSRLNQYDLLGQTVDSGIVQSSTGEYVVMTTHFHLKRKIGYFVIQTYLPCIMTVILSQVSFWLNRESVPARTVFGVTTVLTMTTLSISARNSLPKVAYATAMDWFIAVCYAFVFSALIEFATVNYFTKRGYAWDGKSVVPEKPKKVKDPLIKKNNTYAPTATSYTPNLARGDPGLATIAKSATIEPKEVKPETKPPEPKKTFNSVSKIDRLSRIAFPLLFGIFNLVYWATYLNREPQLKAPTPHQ
T1 sequence (P28472 26-473 isoform P28472-2): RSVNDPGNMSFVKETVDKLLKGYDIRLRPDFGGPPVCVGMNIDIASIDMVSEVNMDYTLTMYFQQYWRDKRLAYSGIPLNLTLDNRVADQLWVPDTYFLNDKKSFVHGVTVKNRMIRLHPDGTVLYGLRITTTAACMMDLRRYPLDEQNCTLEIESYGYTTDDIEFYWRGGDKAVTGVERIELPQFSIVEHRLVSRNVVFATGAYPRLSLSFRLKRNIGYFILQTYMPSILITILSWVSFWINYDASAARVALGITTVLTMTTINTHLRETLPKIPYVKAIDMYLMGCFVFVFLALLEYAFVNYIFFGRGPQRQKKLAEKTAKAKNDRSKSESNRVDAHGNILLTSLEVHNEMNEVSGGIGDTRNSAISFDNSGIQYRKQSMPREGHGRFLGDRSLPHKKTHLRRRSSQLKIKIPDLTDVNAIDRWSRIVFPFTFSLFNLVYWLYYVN
T1 sequence (P18507 40-475 R215H): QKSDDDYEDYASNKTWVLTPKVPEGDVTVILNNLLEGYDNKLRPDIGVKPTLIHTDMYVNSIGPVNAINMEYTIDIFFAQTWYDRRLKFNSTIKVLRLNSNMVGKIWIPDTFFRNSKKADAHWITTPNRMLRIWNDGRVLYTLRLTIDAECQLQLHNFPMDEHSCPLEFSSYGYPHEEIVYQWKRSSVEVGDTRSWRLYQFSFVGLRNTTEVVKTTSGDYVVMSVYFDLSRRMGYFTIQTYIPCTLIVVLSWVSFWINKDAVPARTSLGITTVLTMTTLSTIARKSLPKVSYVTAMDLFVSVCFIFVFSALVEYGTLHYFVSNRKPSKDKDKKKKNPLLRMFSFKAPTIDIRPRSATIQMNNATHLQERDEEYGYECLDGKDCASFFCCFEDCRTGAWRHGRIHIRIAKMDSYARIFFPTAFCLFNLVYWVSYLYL
Experimental: (§1) The coding sequences of human α1 (GABRA1, NM_000806), β3 (GABRB3, NM_021912), and γ2 (GABRG2, NM_198904.2) GABAAR subunits were subcloned into the pcDNA3.1 expression vectors (Invitrogen, Waltham, MA, USA).
(§2) HEK293T cells (ATCC, CRL-11268) were cultured at 37 °C in a humidified 5% CO2 incubator and maintained in Dulbecco’s modified Eagle’s medium (Invitrogen) supplemented with 10% fetal bovine serum (Life Technologies, Carlsbad, CA, USA), and 100 IU/mL of penicillin/streptomycin (Life Technologies). For the expression experiments, 4 × 10^5 cells were transfected using polyethylenimine (PEI) reagent (40 kD, Polysciences, Warrington, PA, USA) at a DNA: to transfection reagent ratio of 1:2.5 and harvested 36 h after transfection. To express WT and variant α1β3γ2 receptors, a total of 3 µg of α1, β3, and γ2 (WT or mutant) subunit cDNAs were transfected at a ratio of 1:1:1 into 60 mm culture dishes. For the mock-transfected condition, an empty pcDNA3.1 vector was added for a final cDNA transfection amount of 3 μg. For the electrophysiology experiments, 2.5 × 10^5 cells were plated in 100 mm culture dishes and transfected after 24 h with 3 μg of cDNA of each α1, β3, γ2 (wild-type or mutant) subunit, using X-tremeGENE HP DNA transfection Reagent (Roche Diagnostics, Basel, Switzerland), following the manufacturer’s protocol. Recordings were obtained forty-eight hours after transfection.
Whole-cell patch clamp recordings were conducted according to the manufacturer’s standard procedure for the SyncroPatch 384 [31]. […] Using PatchControl 384, electrophysiological parameters, such as seal resistance, capacitance, and series resistance, were determined for each well after the application of a test pulse, and subsequently monitored over time. […] The currents were normalized to the maximal response of each well, and the concentration–response curves were calculated from single-point additions. The EC50 values for each variant or wild-type receptor were calculated across multiple wells for each experimental condition.

[2] = target: T2, α1β3γ2 GABAA receptor, wild-type (WT) γ2 subunit (Homo sapiens, UniProt P14867+P28472); assay: Automated patch clamp of GABA-elicited currents (SyncroPatch 384PE), WT receptor; assay type: cell-based; conditions: mean
T2 construct: expressed in transfected cells; host or cells: HEK293T
T2 sequence (P18507 40-475 partner, one chain of several): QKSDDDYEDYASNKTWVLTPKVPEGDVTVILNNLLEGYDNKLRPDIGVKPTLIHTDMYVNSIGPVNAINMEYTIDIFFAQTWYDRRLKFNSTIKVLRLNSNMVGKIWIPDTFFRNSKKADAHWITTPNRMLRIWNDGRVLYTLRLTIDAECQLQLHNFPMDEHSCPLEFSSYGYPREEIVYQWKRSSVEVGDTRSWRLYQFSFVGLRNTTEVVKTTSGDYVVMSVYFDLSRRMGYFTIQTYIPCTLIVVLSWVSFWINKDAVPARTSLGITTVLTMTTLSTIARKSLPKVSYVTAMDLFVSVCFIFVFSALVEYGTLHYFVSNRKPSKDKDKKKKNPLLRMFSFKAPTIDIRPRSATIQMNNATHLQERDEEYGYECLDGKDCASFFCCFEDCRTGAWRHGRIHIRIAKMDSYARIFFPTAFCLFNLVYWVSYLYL
Experimental: as §1, §2
Whole-cell patch clamp recordings were conducted according to the manufacturer’s standard procedure for the SyncroPatch 384 [31]. Whole-cell voltage-clamp recordings were performed at room temperature on HEK293T cells 48 h after transfection with GABAAR subunits, using the SyncroPatch 384PE (Nanion Technologies, Munich, Germany). Cells, at a concentration of 400,000 cells/mL, were harvested in suspension in external solution containing 140 mM of NaCl, 2 mM of CaCl2, 4 mM of KCl, 1 mM of MgCl2, 5 mM of glucose, and 10 mM of HEPES (pH 7.4 with NaOH, 298 mOsm). The cells were loaded in a multi-hole (4 holes per well) 384-well Nanion patch clamp (NPC) chip with a thick borosilicate glass bottom and an average resistance pore size of […]. Built-in electrophysiological protocols were used, and the data were digitized using PatchControl 384 (Nanion Technologies) application. Using PatchControl 384, electrophysiological parameters, such as seal resistance, capacitance, and series resistance, were determined for each well after the application of a test pulse, and subsequently monitored over time. […] The currents were normalized to the maximal response of each well, and the concentration–response curves were calculated from single-point additions. The EC50 values for each variant or wild-type receptor were calculated across multiple wells for each experimental condition.

[3] = 10–90% rise time, 1 mM GABA for 5 ms, HEK293T

NCCCC(=O)O [GABA, γ-aminobutyric acid]
IMAX (maximal GABA-evoked peak current) ([1]; 1 mM GABA for 5 ms, HEK293T): 0.61 nA
IMAX variant/IMAX WT ([1]; 1 mM GABA): 30.44%
Rise Time [1, 3]: 31.68 ms
Deactivation ([2]; 1 mM GABA for 5 ms, HEK293T, -80 mV): 199.9 ms
IMAX (maximal GABA-evoked peak current) ([2]; 1 mM GABA for 5 ms, HEK293T): 2.00 nA
IMAX variant/IMAX WT ([2]; 1 mM GABA): 100.00%
Rise Time [2, 3]: 13.67 ms

Source: PMC10046037, “GABRG2 Variants Associated with Febrile Seizures” (Biomolecules, 2023)
